Reference: patent US6962909B2, “Treatment of neovascularization disorders with squalimine” (Genaera Corporation, priority 1995, dated 2005)
Marks after values point to notes of the source that are not given here.

How the values were obtained:
Mouse IV PK study = conditions: in vivo, i.v., HPLC, read-out: Half-life of clearance from the blood stream
Procedure: To assess clearance, a mouse IV PK study was performed for compound 319 and squalamine. The compound was administered i.v. and blood samples were taken every 10 minutes. The concentration of the administered steroid was determined by HPLC analysis.

[1] = Fasting blood glucose in mice; assay type: in vivo; conditions: for Fasting Blood Glucose Mean + SEM: male CD-1 mice, 2 × 10 mg/kg i.v. (total 20 mg/kg), overnight fast, blood 30 min. after 2d dose, 1437 and 1256 in H2O, 1436 in D5W
Procedure: To study the effect of steroid administrator or the NHE responsible for secretion of insulin, several of the aminosterols from shark liver were administered to fasting mice. Male CD-1 mice were assigned to one of four treatment groups. Whole blood glucose was tested using glucometer (Lifescan Glucometer II and One Touch test strips). Statistical analysis was via one-way analysis of variance (ANOVA) followed by subsequent Bonferonni's t-test.

[2] = system: Stage 59-60 Xenopus tadpoles; assay: Xenopus tadpole assay; assay type: in vivo, Xenopus laevis; conditions: 10 μg/ml in water; for Pharmacological response observed in tadpole: about 1 hour
In short: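 Stage 59-60 Xenopus laevis tadpoles placed in compound dissolved in distilled water at 10 μg/ml, allowing oral uptake and systemic exposure. After 1 hour, capillary blood-flow occlusion in the tail was scored by inverted microscopy (~100×) plus gross observation.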

B16 melanoma = assay: Growth of B16 melanoma in C57B mice; assay type: in vivo
Procedure: The growth of B16 melanoma in C57B mice is dependent upon neovascularization.
Using the growth of B16 melanoma cells in C57B mice, a recognized model for the evaluation of inhibitors of angiogenesis on the growth of cancers, the effects of subcutaneous, intraperitoneal and oral administration of squalamine were evaluated.
Animals were implanted with B16 melanoma followed by treatment with compound 1436 or 1256 administered in a combined schedule or separately. […] Thus, a combination of these two compounds achieves a therapeutic benefit in tumors dependent on neovascularization that may prevent metastatic spread.

[3] = system: chorioallantoic membrane capillaries; assay: Chorioallantoic membrane (CAM) model of capillary growth; assay type: in vivo, chick; conditions: for Percentage positive, Assay 1 / Percentage positive, Assay 2 / Percentage positive, Mean: 3-day embryo
Excerpt: The growing capillaries within the chorioallantoic membrane model (CAM model) have been used as a system in which to evaluate the effect of agents on their potential to inhibit new vessel growth. Neovascularization occurs most aggressively over the first week of embryonic development. Thereafter capillary growth is characterized by principally “elongation” rather than “de novo” formation. In the standard assay, agents are applied locally to a region of the embryo over which neovascularization will occur. Agents are assessed by their ability to inhibit this process, as evaluated by visual examination about 7 days after application. […] The assay utilized is described in detail in Auerbach et al., Pharm. Ther. 51, 1991, 1-11.

[4] = system: vitelline capillaries of 3- to 5-day chick embryo; assay: Chick embryo vitelline capillary regression assay; assay type: in vivo; design: key to Vascular reactivity (capillary regression): + = Vascular reactivity; 0 = No vascular reactivity; +/− = Equivocal reactivity; conditions: for Vascular reactivity (capillary regression): 60 minutes
In short: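 Compounds were applied onto the 3- to 5-day embryo in 0.1 ml 15% Ficol 400 in PBS. Vascular regression was assessed visually after 60 min, scoring capillary constriction and pinching-off into enclosed blood-island-like sacs.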

[5] = system: PHA-stimulated human lymphocytes; assay: Inhibition of mitogen-stimulated growth of human T-cells; assay type: cell-based; conditions: 72 hours
Procedure: Human heparinized blood, freshly collected, was introduced into tissue culture flasks containing 10 μg/ml phytohaemagglutinin (PHA) in RPMI medium with 10% FCS. Various purified steroids were introduced subsequently at concentrations of 1, 5, and 10 μg/ml. Cultures were incubated for 72 hours, after which time colcemid was added to 1 μg/ml. Cultures were maintained for an additional 2 hours, and cells collected. Mitotic figures were estimated using standard cytochemical techniques, following Giemsa staining.

[6] = Growth and weight gain in normal growing mice; assay type: in vivo; conditions: C57B mice
Procedure: Animals were dosed QTD (i.p.) starting on Day 1. […] Animals receiving 5 mg/kg QTD experienced about a 50% reduction in growth, compared to untreated controls, while animals receiving 1 mg/kg QTD were affected by about 10%. […] They appeared very much like hypophysectamized animals might appear.

[7] = 20 μg applied, some vascular irritation noted
[8] = 40 μg applied, some vascular irritation noted

Which half-life (Mouse IV PK study) does the source give for `CC(CC[C@@H](OS(=O)(=O)O)C(C)C)[C@H]1CCC2C3C(CC[C@@]21C)[C@@]1(C)CC[C@H](NCCCNCCCCN)C[C@@H]1C[C@H]3O` (stereo partly shown) [squalamine] here?
Its half-life is roughly 35 min.

What about the “Fasting Blood Glucose Mean + SEM” value [1] of the same compound?
The value was 65 ± 7.3 mg/dL.

What about the “Pharmacological category in tadpole assay (similarity to a reference steroid)” value [2] of the same compound?
Its value is “common vascular occlusive effect”.

And the “Time to death of tadpole” value [2]?
The value was no more than 2 h.

And the “Pharmacological response observed in tadpole” value [2]?
The value was “blood flow through the capillaries of the tail shut down”.

What about the “Pharmacological response observed in tadpole” value ([2]; listed as Compound 1256) of the same compound?
Its value is “Vascular occlusion in fine capillaries of tail”.

What about the “Body weight and hematologic parameters” value (B16 melanoma; during squalamine treatment) of the same compound?
Its value is “no significant depression”.

What about the “Impact on tumor volume” value (B16 melanoma; squalamine 5 mg/kg/day alone) of the same compound?
Its value is “no significant impact on tumor volume”.

What about the “Suppression of tumor volume” value (B16 melanoma; squalamine intraperitoneally) of the same compound?
Its value is “dose-dependent suppression of tumor volume”.

What about the “Suppression of tumor volume” value (B16 melanoma; squalamine orally) of the same compound?
Its value is “dose-dependent suppression of tumor volume”.

And the “Suppression of tumor volume” value (B16 melanoma; squalamine subcutaneously)?
Its value is “dose-dependent suppression of tumor volume”.

And the “Percentage positive, Assay 1” value ([3]; 0.65 μg applied)?
The value was 28%.

And the “Percentage positive, Assay 1” value ([3]; 1.25 μg applied)?
The value was 18%.

And the “Percentage positive, Assay 2” value ([3]; 1.25 μg applied)?
The value was 18%.

What about the “Percentage positive, Mean” value ([3]; 1.25 μg applied) of the same compound?
Its value is 18%.

What about the “Percentage positive, Assay 1” value ([3]; 2.5 μg applied) of the same compound?
The value was 35%.

And the “Percentage positive, Assay 2” value ([3]; 2.5 μg applied)?
Its value is 18%.

What about the “Percentage positive, Mean” value ([3]; 2.5 μg applied) of the same compound?
Its value is 27%.

What about the “Percentage positive, Assay 1” value ([3]; 5.0 μg applied) of the same compound?
The value was 91%.

What about the “Percentage positive, Assay 2” value ([3]; 5.0 μg applied) of the same compound?
Its value is 57%.

And the “Percentage positive, Mean” value ([3]; 5.0 μg applied)?
Its value is 74%.

What about the “Percentage positive, Mean” value ([3]; 20 μg applied) of the same compound?
Its value is 55%.

What about the “Percentage positive, Assay 1” value [3, 7] of the same compound?
The value was 52* %.

And the “Percentage positive, Assay 2” value [3, 7]?
Its value is 58* %.

What about the “Percentage positive, Mean” value ([3]; 40 μg applied) of the same compound?
The value was 32%.

What about the “Percentage positive, Assay 1” value [3, 8] of the same compound?
The value was 50* %.

And the “Percentage positive, Assay 2” value [3, 8]?
Its value is 13* %.

And the Percentage positive ([3]; 13-day embryo, 5.0 μg applied)?
The Percentage positive was 0/26.

What about the “Vascular reactivity (capillary regression)” value (from here on “Vascular reactivity”) ([4]; 0.001 μg applied) of the same compound?
The value was 0.

And the “Vascular reactivity” value ([4]; 0.01 μg applied)?
Its value is “+”.

And the “Vascular reactivity” value ([4]; 0.1 μg applied)?
The value was “+”.

And the “Vascular reactivity” value ([4]; 1 μg applied)?
Its value is “+”.

And the “Vascular reactivity” value ([4]; 10 μg applied)?
The value was “+”.

And the “Inhibition of PHA-stimulated human lymphocytes” value (from here on “Inhibition”) ([5]; 1 μg/ml)?
The value was 3 % control.

And the “Inhibition” value ([5]; 5 μg/ml)?
Its value is 8 % control.

What about the “Inhibition” value ([5]; 10 μg/ml) of the same compound?
The value was 10 % control.

With `CC(CC[C@@H](OS(=O)(=O)O)C(C)C)[C@H]1CCC2C3C(CC[C@@]21C)[C@@]1(C)CC[C@H](NCCCNCCCCNCCCN)C[C@@H]1C[C@H]3O` (stereo partly shown) [Compound 1436] as the compound, how does the “Effect on blood glucose” value ([1]; intravenous, 1436 in D5W (5% glucose), 1437 in water) read?
Its value is “caused hyperglycemia in mice”.

And the “Fasting Blood Glucose Mean + SEM” value [1]?
Its value is 105 ± 8.0 mg/dL.

What about the “Reduction in growth compared to untreated controls” value ([6]; 1 mg/kg QTD i.p.) of the same compound?
The value was “about 10%”.

What about the “Reduction in growth compared to untreated controls” value ([6]; 5 mg/kg QTD i.p.) of the same compound?
The value was roughly 50%.

And the “Suppression of growth of mice” value ([6]; 10 mg/kg QTD i.p., after 6 doses, about 1 month)?
The value was “growth was almost completely inhibited”.

What about the “Pharmacological category in tadpole assay (similarity to a reference steroid)” value [2] of the same compound?
Its value is “common vascular occlusive effect”.

What about the “Time to death of tadpole” value [2] of the same compound?
The value was “about 2 hours”.

And the “Pharmacological response observed in tadpole” value [2]?
The value was “Gradual reduction in overall activity. Heart beat remained strong, suggesting nervous system depression. Melanocytes over head and tail began to swell, first exhibiting visibly distinct nuclei, followed by rupture into fragments”.

And the “Pharmacological response observed in tadpole” value ([2]; listed as compound 1436)?
The value was “dramatic disruption of melanocytes over its head, trunk, and tail, along with depression of its nervous system”.

And the “Impact on tumor volume” value (B16 melanoma; compound 1436 10 mg/kg/every 3 days alone)?
Its value is “no significant impact on tumor volume”.

And the “Vascular reactivity” value ([4]; 0.001 μg applied)?
The value was “+/−”.

And the “Vascular reactivity” value ([4]; 0.01 μg applied)?
Its value is “+”.

And the “Vascular reactivity” value ([4]; 0.1 μg applied)?
Its value is “+”.

What about the “Vascular reactivity” value ([4]; 1 μg applied) of the same compound?
The value was “+”.

What about the “Vascular reactivity” value ([4]; 10 μg applied) of the same compound?
Its value is “+”.

What about the “Effect on chick embryo capillary bed” value ([4]; in vivo) of the same compound?
The value was “causes vitelline capillary regression with about the same potency as squalamine”.

And the “Inhibition” value ([5]; 1 μg/ml)?
Its value is 20 % control.

What about the “Inhibition” value ([5]; 5 μg/ml) of the same compound?
Its value is 50 % control.

What about the “Inhibition” value ([5]; 10 μg/ml) of the same compound?
The value was 80 % control.
